Laboratory results taken from USRE50049E1, “Compositions and methods for treating psoriasis” (SYMBIONYX PHARMACEUTICALS INC, priority 2015, dated 2024).
Entries after “also recorded” stand apart in the source; their conditions may differ. Structures can show the parent of a compound that is named as a salt. Where two headings read alike, the source gives them in different places.

Columns and labels:
[1] = Lammintausta et al., Contact Dermatitis 2010; cited from earlier work
[2] = primary metabolite after oral administration of dimethyl fumarate; cited from earlier work
[3] = cited from earlier work
[4] = system: stratum granulosum (StGrm) coverage of mouse tail epidermis; test: Murine tail model of psoriasis; assay type: in vivo; conditions: 2 weeks of application
Description: The mouse tail test is a well-established animal model used for the development of FDA-approved anti-psoriasis drugs. Table 6 summarize the findings following 2 weeks of test material application on the tails, with the readout of improvement in stratum granulosum (StGrm) coverage +/− side effects.
The arrow in each photomicrograph points to the StGrm (stratum granulosum), which, as noted, is minimal in the control.

[5] = system: TNF α-treated human dermal fibroblasts (HDF); test: PCR gene expression in TNF α-treated human dermal fibroblasts; assay type: cell-based; conditions: 24 hours, TNF-alpha 10 ng/ml
[6] = system: S. typhimurium (TA1535, TA1537); test: AMES genotoxicity testing, overall conclusion (TA1535, TA1537); conditions: including at the highest concentration required for testing (5 mg/ml)
[7] = system: S. typhimurium TA1535; conditions: % of mutant colonies spontaneously occurring in water control
[8] = system: 3T3; test: 3T3 Neutral Red Uptake Phototoxicity Assay; assay type: cell-based; conditions: even at the maximum concentration required for testing (100 μg/ml)
Description: The 3T3 Neutral Red Uptake Phototoxicity Assay was based on the OECD Guideline for Testing of Chemicals: […], with chlorpromazine and tazarotene as positive controls.

[9] = system: S. typhimurium TA1537; conditions: % of mutant colonies spontaneously occurring in water control
[10] = system: skin of healthy adult volunteers; test: Human repeat insult patch test (HRIPT); conditions: IDMF 2% and 5% in butylene glycol/glycerin base
[11] = system: psoriasiform keratinocytes (epidermal keratinocyte progenitors incubated with IL-17A/IL-22/TNFα); test: DNA microarray gene expression in psoriasiform keratinocyte cultures; assay type: cell-based, human; conditions: IDMF added after 24 h cytokine treatment, further 24 h
Method: Psoriasiform keratinocyte cultures were established by incubating epidermal keratinocyte progenitors from stratum basae (Zen-Bio, RTP, NC) with IL-17A/IL-22/TNFα ([…]) for 24 h. These cytokines have been reported to be key triggers in psoriasis (Y Tokura, T Mori, R Hino, Psoriasis and other Th17-mediated skin diseases. J UOEH, 32(4):317-328, 2010; A B Van Belle, M de Heusch, M M Lemaire, E Hendrickx, G Wamier, K Dunussi-Joannopoulos, L A Fouser, J C Renauld, L Dumoutier, IL-22 is required for imiquimod-induced psoriasiform skin inflammation in mice, J Immunol, 188(1):462-469, 2012; A Hänsel, C Günther, J Ingwersen, J Starke, M Schmitz, M Bachmann, M Meurer, E P Rieber, K Schäkel, Human slan (6-sulfo LacNAc) dendritic cells are inflammatory dermal dendritic cells in psoriasis and drive strong TH17/TH1 T-cell responses, J Allergy Clin Immunol, 127(3):787-794, 2011; Kim J, Krueger J G. The Immunopathogenesis of Psoriasis, Dermatol Clin, 33:13-23, 2015). […]
After 24 h of cytokine treatment, the IDMF test materials were added to cells and further incubation with IL-17A/IL-22/TNFα was pursued for another 24 h. At the end of the experiment total RNA was extracted from keratinocytes and quantified using DNA microarrays. […]

[12] = mouse tail, IDMF 2%, Tazorac 0.1% tazarotene

For `COC(=O)/C=C/C(=O)O` [MMF, monomethyl fumarate], the skin sensitization [1] is given as “known skin sensitizers”, the half-life [2] is given as 36 h and the “protein binding (bound)” value [3] is given as “approximately 50%”.
For `CCOC(=O)c1ccc(C#Cc2ccc3c(c2)C(C)(C)CCS3)nc1` [tazarotene, reference compound], the “adverse effects in mouse tail test” value ([4]; positive control) was “substantial hyperkeratosis, spongiosis and wide-spread inflammation”.
In the case of `COC(=O)/C=C/C(=O)OC` [DMF, Dimethyl fumarate, reference compound], the NFKB expression ([5]; DMF 5 μg/ml) is given as “decreased” and the protein binding [3] is given as “does not display protein binding”.
For `COC(=O)/C=C/C(=O)OC1COC2C(OC(=O)/C=C/C(=O)OC)COC12` (centres unmarked) [IDMF, isosorbide di-(methylfumarate)], the “genotoxicity (AMES)” value [6] was “not genotoxic”, the “% CTR (TA1535)” value ([7]; 8 μg/ml) was 96 % CTR and the “% CTR (TA1535)” value ([7]; 40 μg/ml) was 89 % CTR. The “% CTR (TA1535)” value ([7]; 200 μg/ml) was 68 % CTR, the “% CTR (TA1535)” value ([7]; 1 mg/ml) was 64 % CTR and the “% CTR (TA1535)” value ([7]; 5 mg/ml) was 18 % CTR. The phototoxicity [8] was “not phototoxic”, the “% CTR (TA1537)” value ([9]; 8 μg/ml) was 83 % CTR and the “% CTR (TA1537)” value ([9]; 40 μg/ml) was 117 % CTR. For the same compound, the “% CTR (TA1537)” value ([9]; 200 μg/ml) was 91 % CTR, the “% CTR (TA1537)” value ([9]; 1 mg/ml) was 30 % CTR and the “% CTR (TA1537)” value ([9]; 5 mg/ml) was 13 % CTR. The “conclusion of the HRIPT study” value [10] was “non-sensitizing and non-irritating”, the “participants with score zero” value ([10]; 100 healthy adult volunteers) was 100% and the “skin sensitization/irritation score (scale 0-5)” value ([10]; 100 healthy adult volunteers) was 0. The flushing ([10]; topical patch) was “no flushing was observed”, the “Tail observations: epidermal thickness” value ([4]; mouse tail, IDMF 2% in butylene glycol/glycerin, Tazorac 0.1% tazarotene, control 3-4 layers) was “thickness (4-5 layers),” and the “Tail observations: granular layer (StGrm)” value [4, 12] was “significant extension of StGrm coverage; also recorded: extended granular layer”. For the same compound, the “Tail observations: inflammatory (leukocyte) infiltrate” value [4, 12] was “no inflammation; also recorded: no inflammatory infiltrate,”, the “Tail observations: stratum corneum (StCr)” value [4, 12] was “normal basketwave StCr,” and the StGrm expansion ([4]; mouse tail, control (no treatment) = 100, IDMF 2% in butylene glycol/glycerin, Tazorac 0.1% tazarotene, p < 0.0001) was 134 (p < 0.0001). The COX-2 expression ([5]; IDMF 1 μg/ml) was −2.4 fold, the IL8 expression ([5]; IDMF 1 μg/ml) was “did not increase” and the NFKB expression ([5]; IDMF 1 μg/ml) was “decreased”. The “TNFα/IFNγ/IL-17 responses (DNA microarray)” value [11] was “significant inhibition” and the “antioxidant pathways, especially those related to glutathione (DNA microarray)” value [11] was “upregulated”.
